One test concerns HUVECs and platelets. Description: Platelet adhesion and dynamics on TNF-α stimulated endothelium (living or fixed), whole blood perfusion. To be noted: for platelet aggregation pattern / Aggregation Index (AI) / translocation and embolization of thrombi / Embolization Index (EI): HUVEC, TNF-α 0, 5, 100 ng/ml. Format: cell-based, human. As to the method:
500 microliters (“μL”) of whole blood are pipetted into a fluid reservoir fitted to one end of a microchannel. Platelets are labeled with human CD41-PE antibody (e.g., 10 μL/mL from Invitrogen) that is directly added to the blood samples and incubated at room temperature for 10 minutes. Fluorescently labeled fibrinogen (e.g., 10 μg/mL from Life Sciences) is added, if required. Blood is pulled through the device (e.g., 30 μL/min) via tubing at an outlet using a syringe pump (e.g., PHD Ultra™ CP, Harvard Apparatus), resulting in an arterial shear rate of 750 s^−1. After two minutes, blood is supplemented with 100 millimolars (“mM”) calcium (“CaCl2”) and 75 mM magnesium (“MgCl2”) to support coagulation-activated blood clotting (e.g., 100 μL/mL).
Platelets are visualized using time-lapse fluorescence imaging (e.g., 20×, NA 0.4). A time series of a 10-frame panorama (e.g., 6 mm long×0.665 mm wide region of a microchannel), at a lapse of every 30 seconds is recorded. The resulting image stack is maximum intensity projected along time, thresholded, segmented, and cropped to a central 200 microns (“μm”) of the channel width for analysis. Finally, platelet coverage is computed from the binary image as the ratio of bright pixels to the total number of pixels in the image.
Multiple endothelial adhesion molecules are involved in the recruitment of blood cells and platelets in thrombosis in vivo. In previous studies, treatment of a living endothelium cultured in microfluidic channels with TNF-α results in an increase in expression of surface adhesion molecules, such as ICAM-1 and VCAM-1 within four hours after addition. To explore whether a fixed endothelium retains expression of these and other surface molecules that could potentially exacerbate thrombosis, the endothelium is first activated in the device by adding increasing doses of TNF-α, e.g., 0, 5, and 100 nanograms/millliter (“ng/ml”), for approximately 18 hours. The endothelium cells are fixed with 4% paraformaldehyde in phosphate-buffered saline (“PBS”) for 15 minutes at room temperature, are rinsed three times with PBS, and, then, stored in PBS at 4° C. in a humid environment.
To explore whether the fixed endothelium in the microfluidic devices retains the ability to promote hemostasis, recalcified citrated whole blood (coagulation activated) is immediately perfused through a microfluidic channel lined by the fixed endothelium and preserved for 24-36 hours. Platelet adhesion is analyzed for 15 minutes of flow.
(§1) Specifically, the analysis includes a method to quantitate platelet function in flow chambers and microfluidic devices that has been primarily limited to analyzing platelet adhesion on bare collagen surfaces. To analyze platelet-endothelial dynamics that will act as a robust readout of physiologically-relevant clotting, an automated imaging program creates an image time-series, K(x, y, t), containing a 10-frame panorama in space. Images are acquired at a frame rate of 2 panoramic images per minute, for a total time of 15 minutes. A non-dimensional stochastic index is derived to quantitate platelet endothelial dynamics (“P-E”), which is the interpercentile range of a coefficient of variance of the image time-series: P-E=range(CV(K(x,y,t) (1) A feature of this analytical readout is that instead of an “ensemble averaging,” the method incorporates the cell-surface interactions at the pixel level and quantitates statistical “dispersion” of interactions.
When the device is perfused with whole blood, thrombi that are rich in platelets and fibrin form on the surface (FIG. 65C). The spatiotemporal dynamics of fluorescent platelet activity during formation of these thrombi on the endothelial surface was analyzed by time-lapse imaging. As flow was stable for at least 15 min, all experiments were carried out within the first 15 minutes. In some embodiments, blood might begin to clot in the tubing connected to the chip at later times (leading to decreased perfusion rates). […]

Test [1] deals with primary alveolar epithelial cells (AE) and endothelial cells with whole blood. Description: Lung-on-a-chip stimulated with TNF-α or LPS: vascular ICAM-1, P-E, clots, gap junctions. In kind it is cell-based, human.
Source text: as §1
After plasma treatment of the microfluidic devices, the two chambers are pre-treated with 10% (3-aminopropyl)-trimethoxysilane (APTMES, e.g., from Sigma) in 100% anhydrous alcohol (e.g., from Sigma) for 10-20 minutes. The chambers are flushed sequentially with 70% ethanol in water and 100% ethanol, and then dried at 60-80° C. for two hours. Then, a mixture of rat tail collagen I (100 μg ml^−1 in PBS, from BD Biosciences) and fibronectin (e.g., 30 μg/ml in PBSm, from BD Biosciences) is introduced in both chambers of the microfluidic device. The microfluidic device is incubated at 37° C. for at least 2 hours before flushing with PBS or EGM-2 cell culture media.
Some of the microfluidic devices are used with collagen coating alone (without cells). In other devices, HUVECs (e.g. from Lonza) are cultured in Endothelial Growth Medium-2 (EGM-2, from Lonza) and used between certain passages. The cells (5-10×10^6 cells/ml) are introduced into the collagen-coated channels and incubated for 20 minutes at 37° C. to promote cell attachment before a second similar HUVEC suspension is, then, introduced. The microfluidic devices are incubated upside down for an additional 20 minutes to seed the cells on the ceiling and walls of the lower chamber.
The lower chamber is then flushed with EGM-2 and, then, a suspension of primary alveolar epithelial cells (e.g., from ScienCell Research Labs, Carlsbad, Calif.; 5-6×10^6 cells ml^−1) is introduced into the top chamber of the device. After a few hours, the top and bottom chambers are flushed with their respective media, and the microfluidic devices are incubated at 37° C. under 5% CO2 for 3 days (with media being replaced each day once). On day 4, the bottom vascular chamber is set on perfusion of EGM-2 media (e.g., 30 μL hr^−1; 0.5% fetal bovine serum) to provide shear to the HUVEC vessel chamber and a continuous supply of fresh media.
On day 6, the epithelial cell media in the top chamber is aspirated to create the air-liquid interface of the alveoli. Hereon, the cell culture continues for another 6-8 days, after which, in some cases, the top chamber is supplemented with 0, 5, or 100 ng ml^−1 TNF-α in PBS (e.g., from Sigma) overnight or LPS (e.g., 100 ng ml^−1 of E. Coli, from Sigma,) for 2 hours to cause cell activation. The LPS is sonicated in ultrasonic bath for about 20-30 minutes before introducing into the microfluidic device. After stimulation, the top chamber is clamped, the bottom chamber is rinsed with culture media, a reservoir cut from a 3 ml slip-tip syringe (e.g., from BD) is inserted on one end of the lower chamber, and a 1/16-inch male luer connector (e.g., from Qosina Corp) is inserted on the other end of the lower chamber.
When analyzing the formation of fibrin, blood samples re added with 15 μg ml^−1 of fluorescently labeled fibrinogen (e.g., Alexa 488 from Invitrogen). […]

Entries after “also recorded” stand apart in the source; their conditions may differ.

For tumor necrosis factor-α [TNF-α], in the test with HUVECs and platelets, the “platelet aggregation pattern / Aggregation Index (AI)” value is “heterogeneous and fluctuated in a dose-dependent manner; also recorded: varied depending on the dose of TNF-α”; the “translocation and embolization of thrombi / Embolization Index (EI)” value was “great variation in the fluorescent signal over time and space; also recorded: increased with increasing doses”. In the test on HUVECs and platelets (listed as TNFα), the “platelet aggregation pattern / Aggregation Index (AI)” value is reported as “rise of AI with increasing TNFα dose”; the “translocation and embolization of thrombi / Embolization Index (EI)” value is on record as “increased in a TNFα dose-dependent manner”. Besides, the “area-averaged platelet adhesion rate on living HUVECs” value in the test on HUVECs and platelets (TNF-α stimulated HUVECs (TNF+; TNF++) versus unstimulated) is listed as “increase in platelet adhesion”. The “platelet dynamics (TPD, SPD) on fixed HUVECs” value in the test with HUVECs and platelets (TNF-α treated and fixed, versus fixed collagen or untreated fixed endothelium) is given as “elevated”. The “platelet coverage on fixed endothelium” value in the test on HUVECs and platelets (endothelium treated with increasing doses of TNF-α prior to fixation) is “increases in a TNF-α dose-dependent manner; also recorded: dose-dependent increase in platelet surface adhesion; also recorded: dose-dependent increase in surface coverage of platelet-rich thrombi”. For the same substance, the “platelet-endothelial dynamics (P-E; spatial and temporal dispersion)” value in the test with HUVECs and platelets (living endothelium stimulated with TNF-α) was “increase in a TNF-α dose dependent manner; also recorded: significant fluctuations; also recorded: TNF-α dose-dependent increase in both the spatial and temporal dispersion”. Moreover, the “platelet coverage / adhesion on living endothelium” value with HUVECs and platelets (living endothelium stimulated with TNF-α before blood flow) is “increases in a TNF-α dose-dependent manner; also recorded: platelet adhesion again occurs; also recorded: platelet adhesion and aggregation again resulted”. Further, the “vascular ICAM-1 expression in lung-on-chip” value in test [1] (TNF-α on alveolar compartment containing AE) was “increases in a dose-dependent manner”. Further, the “platelet-endothelial dynamics in lung-on-chip” value in test [1] (TNF-α stimulated versus untreated) is “follows a similar trend as ICAM-1”. In addition, in test [1] (TNF-α stimulated, end of assay), the “clots (platelets and fibrin) in vascular compartment of lung-on-chip” value is given as “significant amount of clots are observed”.

Source of the values: US10732172B1, “Methods, systems, and compositions for determining blood clot formation, and uses thereof” (President and Fellows of Harvard College, priority 2015, dated 2020).
